Assay results taken from ChEMBL document CHEMBL3352489, “6-Hydroxyquinolinium salts differing in the length of alkyl side-chain: synthesis and antimicrobial activity” (Bioorg Med Chem Lett, 2014).

Experiments:
[1] = tested on: Staphylococcus aureus; experiment: microbe, parasite or virus in culture; format: functional; conditions: CCM 4516/08, 24 h
Description: Antibacterial activity against Staphylococcus aureus CCM 4516/08 after 24 hrs by microdilution broth method

[2] = tested on: Staphylococcus aureus; experiment: microbe, parasite or virus in culture; format: functional; conditions: CCM 4516/08, 48 h
Description: Antibacterial activity against Staphylococcus aureus CCM 4516/08 after 48 hrs by microdilution broth method

[3] = tested on: Staphylococcus aureus; experiment: Bactericidal activity against Staphylococcus aureus CCM 4516/08 after 48 hrs by microdilution broth method; format: functional; conditions: CCM 4516/08, 48 h, read-out: MBC>99.9
[4] = tested on: Staphylococcus aureus; experiment: microbe, parasite or virus in culture; format: functional; conditions: H 5996/08, 24 h
Description: Antibacterial activity against Staphylococcus aureus H 5996/08 after 24 hrs by microdilution broth method

[5] = tested on: Staphylococcus aureus; experiment: microbe, parasite or virus in culture; format: functional; conditions: H 5996/08, 48 h
Description: Antibacterial activity against Staphylococcus aureus H 5996/08 after 48 hrs by microdilution broth method

[6] = tested on: Staphylococcus aureus; experiment: Bactericidal activity against Staphylococcus aureus H 5996/08 after 48 hrs by microdilution broth method; format: functional; conditions: H 5996/08, 48 h, read-out: MBC>99.9
[7] = tested on: Staphylococcus epidermidis; experiment: microbe, parasite or virus in culture; format: functional; conditions: H 6966/08, 24 h
Description: Antibacterial activity against Staphylococcus epidermidis H 6966/08 after 24 hrs by microdilution broth method

[8] = tested on: Staphylococcus epidermidis; experiment: microbe, parasite or virus in culture; format: functional; conditions: H 6966/08, 48 h
Description: Antibacterial activity against Staphylococcus epidermidis H 6966/08 after 48 hrs by microdilution broth method

[9] = tested on: Staphylococcus epidermidis; experiment: Bactericidal activity against Staphylococcus epidermidis H 6966/08 after 48 hrs by microdilution broth method; format: functional; conditions: H 6966/08, 48 h, read-out: MBC>99.9
[10] = tested on: Enterococcus sp.; experiment: microbe, parasite or virus in culture; format: functional; conditions: J 14365/08, 24 h
Description: Antibacterial activity against Enterococcus sp. J 14365/08 after 24 hrs by microdilution broth method

[11] = tested on: Enterococcus sp.; experiment: microbe, parasite or virus in culture; format: functional; conditions: J 14365/08, 48 h
Description: Antibacterial activity against Enterococcus sp. J 14365/08 after 48 hrs by microdilution broth method

[12] = tested on: Enterococcus sp.; experiment: Bactericidal activity against Enterococcus sp. J 14365/08 after 48 hrs by microdilution broth method; format: functional; conditions: J 14365/08, 48 h, read-out: MBC>99.9
[13] = tested on: Escherichia coli; experiment: microbe, parasite or virus in culture; format: functional; conditions: CCM 4517, 24 h
Description: Antibacterial activity against Escherichia coli CCM 4517 after 24 hrs by microdilution broth method

[14] = tested on: Escherichia coli; experiment: microbe, parasite or virus in culture; format: functional; conditions: CCM 4517, 48 h
Description: Antibacterial activity against Escherichia coli CCM 4517 after 48 hrs by microdilution broth method

[15] = tested on: Escherichia coli; experiment: Bactericidal activity against Escherichia coli CCM 4517 after 48 hrs by microdilution broth method; format: functional; conditions: CCM 4517, 48 h, read-out: MBC>99.9
[16] = tested on: Klebsiella pneumoniae; experiment: microbe, parasite or virus in culture; format: functional; conditions: D 11750/08, 24 h
Description: Antibacterial activity against Klebsiella pneumoniae D 11750/08 after 24 hrs by microdilution broth method

[17] = tested on: Klebsiella pneumoniae; experiment: microbe, parasite or virus in culture; format: functional; conditions: D 11750/08, 48 h
Description: Antibacterial activity against Klebsiella pneumoniae D 11750/08 after 48 hrs by microdilution broth method

[18] = tested on: Klebsiella pneumoniae; experiment: Bactericidal activity against Klebsiella pneumoniae D 11750/08 after 24 hrs by microdilution broth method; format: functional; conditions: D 11750/08, 24 h, read-out: MBC>99.9
[19] = tested on: Klebsiella pneumoniae; experiment: microbe, parasite or virus in culture; format: functional; conditions: J 14368/08, 24 h
Description: Antibacterial activity against Klebsiella pneumoniae J 14368/08 after 24 hrs by microdilution broth method

[20] = tested on: Klebsiella pneumoniae; experiment: microbe, parasite or virus in culture; format: functional; conditions: J 14368/08, 48 h
Description: Antibacterial activity against Klebsiella pneumoniae J 14368/08 after 48 hrs by microdilution broth method

[21] = tested on: Klebsiella pneumoniae; experiment: Bactericidal activity against Klebsiella pneumoniae J 14368/08 after 48 hrs by microdilution broth method; format: functional; conditions: J 14368/08, 48 h, read-out: MBC>99.9
[22] = tested on: Pseudomonas aeruginosa; experiment: microbe, parasite or virus in culture; format: functional; conditions: CCM 1961, 72 h
Description: Antibacterial activity against Pseudomonas aeruginosa CCM 1961 after 72 hrs by microdilution broth method

[23] = tested on: Pseudomonas aeruginosa; experiment: microbe, parasite or virus in culture; format: functional; conditions: CCM 1961, 120 h
Description: Antibacterial activity against Pseudomonas aeruginosa CCM 1961 after 120 hrs by microdilution broth method

[24] = tested on: Pseudomonas aeruginosa; experiment: Bactericidal activity against Pseudomonas aeruginosa CCM 1961 after 120 hrs by microdilution broth method; format: functional; conditions: CCM 1961, 120 h, read-out: MBC>99.9
[25] = tested on: Candida albicans; experiment: microbe, parasite or virus in culture; format: functional; conditions: ATCC 44859, 24 h
Description: Antifungal activity against Candida albicans ATCC 44859 after 24 hrs by modified standard CSLI M27-A2 method

[26] = tested on: Candida albicans; experiment: microbe, parasite or virus in culture; format: functional; conditions: ATCC 44859, 48 h
Description: Antifungal activity against Candida albicans ATCC 44859 after 48 hrs by modified standard CSLI M27-A2 method

[27] = tested on: Candida albicans; experiment: Fungicidal activity against Candida albicans ATCC 44859 after 48 hrs by modified standard CSLI M27-A2 method; format: functional; conditions: ATCC 44859, 48 h
[28] = tested on: Candida tropicalis; experiment: microbe, parasite or virus in culture; format: functional; conditions: Candida tropicalis, 156, 24 h
Description: Antifungal activity against Candida tropicalis 156 after 24 hrs by modified standard CSLI M27-A2 method

[29] = tested on: Candida tropicalis; experiment: microbe, parasite or virus in culture; format: functional; conditions: Candida tropicalis, 156, 48 h
Description: Antifungal activity against Candida tropicalis 156 after 48 hrs by modified standard CSLI M27-A2 method

[30] = tested on: Candida tropicalis; experiment: Fungicidal activity against Candida tropicalis 156 after 48 hrs by modified standard CSLI M27-A2 method; format: functional; conditions: Candida tropicalis, 156, 48 h
[31] = tested on: Pichia kudriavzevii; experiment: Antifungal activity against Candida krusei E28 after 24 hrs by modified standard CSLI M27-A2 method; format: functional; conditions: E28, 24 h
[32] = tested on: Pichia kudriavzevii; experiment: Antifungal activity against Candida krusei E28 after 48 hrs by modified standard CSLI M27-A2 method; format: functional; conditions: E28, 48 h
[33] = tested on: Pichia kudriavzevii; experiment: Fungicidal activity against Candida krusei E28 after 48 hrs by modified standard CSLI M27-A2 method; format: functional; conditions: E28, 48 h
[34] = tested on: Nakaseomyces glabratus; experiment: Antifungal activity against Candida glabrata 20/I after 24 hrs by modified standard CSLI M27-A2 method; format: functional
[35] = tested on: Nakaseomyces glabratus; experiment: Antifungal activity against Candida glabrata 20/I after 48 hrs by modified standard CSLI M27-A2 method; format: functional
[36] = tested on: Nakaseomyces glabratus; experiment: Fungicidal activity against Candida glabrata 20/I after 48 hrs by modified standard CSLI M27-A2 method; format: functional
[37] = tested on: Trichosporon asahii; experiment: microbe, parasite or virus in culture; format: functional; conditions: Trichosporon asahii, 1188, 24 h
Description: Antifungal activity against Trichosporon asahii 1188 after 24 hrs by modified standard CSLI M27-A2 method

[38] = tested on: Trichosporon asahii; experiment: microbe, parasite or virus in culture; format: functional; conditions: Trichosporon asahii, 1188, 48 h
Description: Antifungal activity against Trichosporon asahii 1188 after 48 hrs by modified standard CSLI M27-A2 method

[39] = tested on: Trichosporon asahii; experiment: Fungicidal activity against Trichosporon asahii 1188 after 48 hrs by modified standard CSLI M27-A2 method; format: functional; conditions: Trichosporon asahii, 1188, 48 h
[40] = tested on: Aspergillus fumigatus; experiment: microbe, parasite or virus in culture; format: functional; conditions: Aspergillus fumigatus, 231, 24 h
Description: Antifungal activity against Aspergillus fumigatus 231 after 24 hrs by modified standard CSLI M27-A2 method

[41] = tested on: Aspergillus fumigatus; experiment: microbe, parasite or virus in culture; format: functional; conditions: Aspergillus fumigatus, 231, 48 h
Description: Antifungal activity against Aspergillus fumigatus 231 after 48 hrs by modified standard CSLI M27-A2 method

[42] = tested on: Aspergillus fumigatus; experiment: Fungicidal activity against Aspergillus fumigatus 231 after 48 hrs by modified standard CSLI M27-A2 method; format: functional; conditions: Aspergillus fumigatus, 231, 48 h
[43] = tested on: Lichtheimia corymbifera; experiment: microbe, parasite or virus in culture; format: functional; conditions: Lichtheimia corymbifera, 272, 24 h
Description: Antifungal activity against Absidia corymbifera 272 after 24 hrs by modified standard CSLI M27-A2 method

[44] = tested on: Lichtheimia corymbifera; experiment: microbe, parasite or virus in culture; format: functional; conditions: Lichtheimia corymbifera, 272, 48 h
Description: Antifungal activity against Absidia corymbifera 272 after 48 hrs by modified standard CSLI M27-A2 method

[45] = tested on: Lichtheimia corymbifera; experiment: Fungicidal activity against Absidia corymbifera 272 after 48 hrs by modified standard CSLI M27-A2 method; format: functional; conditions: Lichtheimia corymbifera, 272, 48 h
[46] = tested on: Trichophyton mentagrophytes; experiment: microbe, parasite or virus in culture; format: functional; conditions: Trichophyton mentagrophytes, 445, 72 h
Description: Antifungal activity against Trichophyton mentagrophytes 445 after 72 hrs by modified standard CSLI M27-A2 method

[47] = tested on: Trichophyton mentagrophytes; experiment: microbe, parasite or virus in culture; format: functional; conditions: Trichophyton mentagrophytes, 445, 120 h
Description: Antifungal activity against Trichophyton mentagrophytes 445 after 120 hrs by modified standard CSLI M27-A2 method

[48] = tested on: Trichophyton mentagrophytes; experiment: Fungicidal activity against Trichophyton mentagrophytes 445 after 120 hrs by modified standard CSLI M27-A2 method; format: functional; conditions: Trichophyton mentagrophytes, 445, 120 h
[49] = Cytotoxicity against CHOK1 cells after 24 hrs by MTT assay; format: ADME, cell-based; conditions: Cricetulus griseus, CHO-K1, 24 h

CCCCCCCCCCCC[N+](C)(C)Cc1ccccc1
3.91 µM: MIC95 [22] | MIC95 [23] | MIC [41] | MFC [42]
7.81 µM: MBC [24] | MIC [43] | MIC [44] | MFC [45]
0.98 µM: MBC [6] | MIC95 [11] | MBC [12] | MIC95 [19] | MIC95 [20] | MBC [21] | MFC [27] | MFC [30] | MIC [40] | MIC [46] | MIC [47]
29 µM: IC50 [49]
1.95 µM: MIC95 [2] | MBC [3] | MIC95 [14] | MBC [15] | MIC [38] | MFC [39] | MFC [48]
0.49 µM: MIC95 [1] | MIC95 [4] | MIC95 [5] | MIC95 [7] | MIC95 [8] | MBC [9] | MIC95 [10] | MIC95 [13] | MIC95 [16] | MIC95 [17] | MBC [18] | MIC [25] | MIC [26] | MIC [28] | MIC [29] | MIC [31] | MIC [32] | MFC [33] | MIC [34] | MIC [35] | MFC [36] | MIC [37]

CCCCCCCCCCCCCCCC[n+]1ccccc1 [CETYLPYRIDINIUM BROMIDE]
62.5 µM: MFC [45]
3.9 µM: MFC [30]
3.91 µM: MBC [3] | MBC [6] | MBC [9] | MFC [36]
1.95 µM: MFC [33]
7.81 µM: MBC [12] | MBC [15] | MBC [21] | MFC [39] | MFC [48]
125 µM: MBC [24]
15.6 µM: MBC [18] | MFC [27] | MFC [42]
